Five molecules from patent publication US20230133910A1, “NEW METHOD FOR DETECTING AND QUANTIFYING RNA” (EAST CHINA UNIVERSITY OF SCIENCE AND TECHNOLOGY, priority 2020, published 2023) can be followed below.

The subject of one data set is Carrot-1 RNA aptamer. Description: Properties of Carrot-1 RNA aptamer with different fluorophores (spectra, extinction coefficient, quantum yield, activation fold). As to conditions: for fluorescence intensity: excited at 524±10 nm, emission 580 nm±10 nm, 5 μM Carrot-1 + 1 μM IV-39, or control 1 μM IV-39 alone. The class given is biochemical. As for the experimental part:
(§1) (5) Function detection of nucleic acid aptamers Carrot or Carrot mutant nucleic acid aptamer molecules were prepared according to common experimental method (I), 5 μM of nucleic acid aptamer molecules and 1 μM of fluorophore molecules were incubated in detection buffer (40 mM HEPES, pH 7.4, 125 mM KCl, 5 mM MgCl2, 5% DMSO), and Synergy Neo2 multifunctional microplate reader was used for detecting and obtaining the maximum excitation peak and the maximum emission peak of the fluorescence of the nucleic acid aptamer-fluorophore molecule complex. The Synergy Neo2 multifunctional microplate reader was used again for detecting the fluorescence intensity of the aptamer-fluorophore molecule complex under its maximum excitation and emission conditions. Control sample (1 μM of fluorophore molecules without nucleic acid aptamer) was measured under the same condition, and the ratio of fluorescence intensity was calculated. […] By using Synergy Neo2 multifunctional microplate reader, it was detected that the fluorescence intensity of the complex was 5720 when it was excited at 524±10 nm and emitted under the emission condition of 580 nm±10 nm, while fluorescence intensity of the control sample (1 μM of IV-39 fluorophore molecules) under the same detection condition was 20, so the activation multiple of Carrot-1 nuclear acid aptamer to IV-39 fluorophore molecule was 286.
In order to detect the spectral properties of the Carrot-IV-39 complex, Carrot-1 (SEQ ID NO: 2) RNA was prepared according to the commonly used experimental method (1). 1 μM IV-39 with 5 μM Carrot-1 was incubated.
Carrot-1 RNA aptamer was prepared according to the commonly used experimental methods (1), and was used to detect the properties of IV-39 analogues upon Carrot binding, including the fluorescence spectrum, extinction coefficient, quantum yield and fluorescence activation fold. From the data shown in the table, Carrot-1 still could activate the fluorescence of IV-39 analogues.

A further data set has as its target Carrot-1. Description: Binding constant of Carrot-1 and IV-39 by fluorescence titration. As to conditions: 20 nM Carrot-1 incubated with different concentrations of IV-39. As for the experimental part:
In order to detect the binding constant of Carrot-1 and IV-39, 20 nM Carrot-1 was incubated with different concentrations of IV-39 and their fluorescence was determined.

Data set [1] is described as follows: Fluorescence activation of IV-39 by base-modified Carrot. As to conditions: control buffer. Type of data set: biochemical. As for the experimental part:
as §1, with “286. […]” for “286.”

Data set [2] has as its system tdMCP-NanoLuc-tdMCP fusion protein. As to conditions: 293T/17 cells, 1 μM IV-4, 20 μM Furimazine.
Source text: In order to use Carrot to detect RNA-protein interactions, the interaction between phage capsid protein MCP and its binding sequence MS2 RNA was used as an example. […] The cDNAs encoding tdMCP protein (the dimeric form of MCP, SEQ ID No: 32) and NanoLuc protein (SEQ ID No: 33) were synthesized. Primers P29 and P30, P33 and P34 were used to amplify tdMCP gene fragment, respectively. Primers P35 and P36 were used to amplify NanoLuc gene fragment. The obtained fragments were inserted into the HindIII and XhoI sites of pCDNA3.1 hygro(+) to generate pCDNA3.1 hygro(+)-tdMCP-NanoLuc-tdMCP according to the commonly used experimental method (4), the sequence of the fusion protein encoded by which is SEQ ID No:34.
After 24 h of transfection, 1 μM IV-4 fluorophore was added to label Carrot. Imaging was taken immediately after addition of 20 μM Furimazine to the medium.
The nature of data set [3]: Fluorescence activation of IV-39 fluorophore by Carrot-1 and Carrot mutants (function detection of nucleic acid aptamers). The class given is biochemical. The conditions noted are these: for Activation fold: 1 μM IV-39 incubated with 5 μM Carrot-1 mutant RNA. The procedure: as §1
In order to detect the fluorescence activation of IV-39 fluorophore by different Carrot mutant, the Carrot-1 sequence was mutated according to Table 1. The Carrot RNA containing different mutations were prepared according to the commonly used experimental method (1). 1 μM IV-39 was incubated with 5 μM Carrot-1 mutant RNA and their fluorescence activation folds were determined according to the commonly used experimental method (5). […] Several Carrot-1 mutants containing 2-5 mutations still retained strong fluorescence activation of IV-39 (>100 times) (Table 3). In summary, many Carrot-1 mutants containing single and multiple mutants still retain the ability to activate the fluorescence of IV-39 fluorophore.

In the next data set the test system is 293T/17 cells. Description: RNA labeling in mammalian cells using tRNA-Carrot-2 and IV-39. Type of data set: cell-based. From the text:
In major imaging experiments of the examples, a Leica SP8 confocal laser microscope was used for photographing, HCXPL APO 63.0×1.47 oil lens and HyD detector were used, and various lasers, such as 405 nm, 457 nm, 476 nm, 488 nm, 497 nm, 514 nm nm, 561 nm and 633 nm, were used for imaging; complexes formed by each Carrot and dye molecules were imaged by laser close to the wavelength corresponding to the maximum excitation peak. For others, GFP used a 488 nm laser; Hoechst and DAPI fluorescence used a 405 nm laser; and Rhodamine used a 561 nm laser.
In order to use Carrot and IV-39 for RNA labeling in mammalian cells, the reported Pepper and Corn aptamer (binding to HBC599 and DFHO fluorophores, respectively) were used as the controls (Chen et al. Nature Biotechnology 2019. 37: 1287-1293; Song et al. Nature Chemical Biology 2017. 13: 1187-1194). The mammalian cell expression plasmids expressing the RNA aptamers were constructed. cDNAs encoding tRNA-Carrot-2 (SEQ ID No: 4), tRNA-Pepper (SEQ ID No: 22) and tRNA-Corn (SEQ ID No: 21) were synthesized and amplified using the primers P7 and P8, and the primers P9 and P10 were used to amplify pEGFP-N1 to remove the promoter and multiple cloning site regions. […] Fluorescence imaging was performed according to the commonly used experimental method (3).

[4] abbreviates: complex of 5 μM Carrot-1 and 1 μM IV-39.

One may read the Kd as the equilibrium constant for the complex coming apart. Low values mean higher affinity, high ones lower affinity.

For the molecule `CN1C(=O)/C(=C/c2ccc(N(C)CCO)cc2)N=C1/C=C/c1ccccc1` [IV-39], the fluorescence intensity in the data set on Carrot-1 RNA aptamer turned out to be 20. On Carrot-1, the equilibrium dissociation constant (Kd) was determined as 58 nM.
Turning to “Carrot-3: base-modified Carrot, SEQ ID NO: 5, GGGAAGATTGTAAACACGCCGAAAGGCGGACACTTCCC containing deoxyribonucleotide bases (GGGAAGAUUGUAAACACGCCGAAAGGCGGACACUUCCC; some positions are deoxyribonucleotides, which ones are not given here in text)”, in data set [1], the “activation of the fluorescence of IV-39 fluorophore” value is “significantly activate”.
For “Carrot-1: RNA aptamer with the sequence of SEQ ID NO: 1, General Formula Carrot structure N1AGAUUGUAAACAN14-N15-N16GACACUN23 (GGGAAGAUUGUAAACACGCCGAAAGGCGGACACUUCCC; chemistry not given here)”, the “fluorescence of Carrot-IV-4 complex by luminescence energy transfer (BRET)” value in data set [2] is reported as “could not emit obvious orange-red fluorescence”. In the data set with Carrot-1 RNA aptamer (setting [4]), the maximum emission peak turned out to be 580 nm and the maximum excitation peak is on record as 524 nm. For the same molecule, the fluorescence intensity in the data set on Carrot-1 RNA aptamer is on record as 5720. Moreover, in data set [3] (multiple mutations), the Activation fold turned out to be 286 fold. In addition, the Activation fold in data set [3] (single mutation) amounted to 286 fold. Also, the “activation multiple of aptamer to IV-39 fluorophore molecule” value in data set [3] (5 μM Carrot-1, 1 μM IV-39, ratio of fluorescence intensity to fluorophore alone) stood at 286.
For the molecule “Carrot-4: base-modified Carrot, SEQ ID NO: 6, GGGAAGATTGTAAACACGCCGAAAGGCGGACACTTCCC containing 2′-F modification (GGGAAGAUUGUAAACACGCCGAAAGGCGGACACUUCCC; some positions carry 2'-F, which ones are not given here in text)”, the “activation of the fluorescence of IV-39 fluorophore” value in data set [1] was “significantly activate”.

B1: tRNA-Carrot-IV-39: complex of tRNA-Carrot-2 (SEQ ID No: 4) RNA aptamer and IV-39 fluorophore (nucleic acid)
chain: GCCCGGAUAGCUCAGUCGGUAGAGCAGCGGCCGGAAGAUUGUAAACACGCCGAAAGGCGGACACUUCCGGCCGCGGGUCCAGGGUUCAAGUCCCUGUUCGGGCGCCA
modifications: RNA aptamer in complex with IV-39 fluorophore, further chemistry not given here
Regarding B1, the “fluorescence intensity compared with tRNA-Pepper-HBC599 and tRNA-Corn-DFHO complexes” value in the data set with 293T/17 cells (0.5 μM IV-39, 0.5 μM HBC599, 10 μM DFHO) is listed as “markedly higher”. The fluorescence in cells entry in the data set with 293T/17 cells (0.5 μM IV-39, 24 h after transfection, with or without 20 mM Mg2+) is on record as “bright orange fluorescence”.
